From ChEMBL document CHEMBL1201862, “PubChem BioAssay data set” (2004)
Activity calls are given as the source filed them.

Legend:
Type in all cases: functional
[1] = target: ALK tyrosine kinase receptor (Homo sapiens, UniProt Q9UM73);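 further: ALK tested as one member of a kinase panel screen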
[2] = target: Cyclin-dependent kinase 19 (Homo sapiens, UniProt Q9BWU1); experiment: Navigating the Kinome. Panel member name: CDC2L6
[3] = target: T1, V-type proton ATPase subunit c' (Saccharomyces cerevisiae S288c, UniProt P32842); experiment: Dose Response with BCECF Assay for V-ATPase inhibitors that increase vacuolar pH, Powder Set 1.; settings: read-out: EC50_MICROM
T1 sequence (P32842 whole entry): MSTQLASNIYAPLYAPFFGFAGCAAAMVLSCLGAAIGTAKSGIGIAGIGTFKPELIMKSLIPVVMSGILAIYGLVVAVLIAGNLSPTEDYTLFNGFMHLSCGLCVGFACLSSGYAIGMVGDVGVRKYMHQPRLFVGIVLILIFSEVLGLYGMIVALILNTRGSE

[4] = target: T1, V-type proton ATPase subunit c'; experiment: Dose Response of Small Molecules that Regulate V-ATPase Proton Transport in Yeast using pHLuorin, Powder Set1.; settings: read-out: EC50_MICROM
[5] = target: Serine/threonine-protein kinase pim-1 (Homo sapiens, UniProt P11309)
[6] = target: Cell division cycle 7-related protein kinase (Homo sapiens, UniProt O00311);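 further: value obtained from a kinome-wide kinase panel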
[7] = target: Homeodomain-interacting protein kinase 2 (Homo sapiens, UniProt Q9H2X6);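 further: measured within a kinome-wide kinase profiling panel, HIPK2 being one panel member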
Homeodomain-interacting protein kinase 2, sequence (Q9H2X6 whole entry): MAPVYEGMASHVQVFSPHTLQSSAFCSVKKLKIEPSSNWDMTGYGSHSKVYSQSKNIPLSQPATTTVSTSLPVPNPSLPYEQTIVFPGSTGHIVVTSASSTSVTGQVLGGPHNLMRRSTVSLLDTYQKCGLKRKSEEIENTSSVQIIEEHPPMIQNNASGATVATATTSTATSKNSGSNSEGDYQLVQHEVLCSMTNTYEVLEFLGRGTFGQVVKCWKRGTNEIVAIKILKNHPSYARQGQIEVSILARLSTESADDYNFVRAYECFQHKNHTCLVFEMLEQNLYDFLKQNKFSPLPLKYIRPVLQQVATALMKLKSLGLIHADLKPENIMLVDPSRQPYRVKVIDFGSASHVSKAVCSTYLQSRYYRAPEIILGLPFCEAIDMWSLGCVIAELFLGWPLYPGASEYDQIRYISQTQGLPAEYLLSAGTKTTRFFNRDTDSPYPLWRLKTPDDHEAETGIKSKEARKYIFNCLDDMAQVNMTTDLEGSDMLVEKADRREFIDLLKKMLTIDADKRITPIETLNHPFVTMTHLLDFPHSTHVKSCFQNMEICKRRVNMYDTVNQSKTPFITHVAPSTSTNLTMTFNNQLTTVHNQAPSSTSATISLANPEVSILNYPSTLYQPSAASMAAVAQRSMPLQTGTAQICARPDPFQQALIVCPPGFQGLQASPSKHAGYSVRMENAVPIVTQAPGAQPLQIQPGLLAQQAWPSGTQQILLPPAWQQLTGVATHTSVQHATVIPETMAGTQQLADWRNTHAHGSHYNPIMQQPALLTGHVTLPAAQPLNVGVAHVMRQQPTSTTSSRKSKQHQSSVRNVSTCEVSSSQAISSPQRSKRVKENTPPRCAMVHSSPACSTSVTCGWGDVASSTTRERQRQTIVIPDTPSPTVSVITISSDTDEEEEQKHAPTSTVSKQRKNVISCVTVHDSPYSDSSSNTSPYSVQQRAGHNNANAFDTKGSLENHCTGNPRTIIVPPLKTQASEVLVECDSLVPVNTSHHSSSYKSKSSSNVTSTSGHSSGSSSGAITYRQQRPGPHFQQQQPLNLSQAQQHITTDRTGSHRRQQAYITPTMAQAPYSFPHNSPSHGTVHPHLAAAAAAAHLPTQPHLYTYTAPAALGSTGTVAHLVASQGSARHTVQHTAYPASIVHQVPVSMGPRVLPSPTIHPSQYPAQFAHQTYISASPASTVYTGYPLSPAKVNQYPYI

[8] = target: Interleukin-1 receptor-associated kinase 4 (Homo sapiens, UniProt Q9NWZ3)
Interleukin-1 receptor-associated kinase 4, sequence (Q9NWZ3 whole entry): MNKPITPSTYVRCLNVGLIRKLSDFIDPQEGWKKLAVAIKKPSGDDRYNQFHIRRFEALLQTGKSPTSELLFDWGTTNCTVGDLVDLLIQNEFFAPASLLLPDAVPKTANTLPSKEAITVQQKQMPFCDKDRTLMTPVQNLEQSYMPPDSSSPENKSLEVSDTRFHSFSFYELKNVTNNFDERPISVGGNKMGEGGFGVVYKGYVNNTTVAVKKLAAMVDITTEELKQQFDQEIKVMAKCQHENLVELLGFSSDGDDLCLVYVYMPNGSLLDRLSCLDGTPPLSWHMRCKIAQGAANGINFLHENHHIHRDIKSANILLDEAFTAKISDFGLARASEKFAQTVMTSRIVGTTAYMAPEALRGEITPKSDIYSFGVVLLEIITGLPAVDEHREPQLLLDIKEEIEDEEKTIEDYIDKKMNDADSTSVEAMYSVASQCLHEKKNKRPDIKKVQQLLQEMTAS

[9] = target: Glycogen synthase kinase-3 beta (Homo sapiens, UniProt P49841);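 further: value comes from a broad kinome profiling panel, with GSK3B as the panel member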
Glycogen synthase kinase-3 beta, sequence (P49841 whole entry): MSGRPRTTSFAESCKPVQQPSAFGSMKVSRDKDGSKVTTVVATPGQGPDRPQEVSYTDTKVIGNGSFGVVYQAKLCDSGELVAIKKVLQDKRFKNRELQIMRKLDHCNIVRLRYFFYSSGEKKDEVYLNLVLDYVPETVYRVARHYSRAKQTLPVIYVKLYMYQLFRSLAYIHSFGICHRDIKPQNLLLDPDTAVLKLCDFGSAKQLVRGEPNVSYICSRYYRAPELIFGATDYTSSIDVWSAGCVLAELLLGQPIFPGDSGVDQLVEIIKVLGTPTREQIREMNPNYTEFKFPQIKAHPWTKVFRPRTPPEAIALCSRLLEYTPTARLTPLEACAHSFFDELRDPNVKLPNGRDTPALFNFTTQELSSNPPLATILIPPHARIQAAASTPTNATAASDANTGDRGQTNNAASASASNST

[10] = target: cAMP-dependent protein kinase catalytic subunit alpha (Homo sapiens, UniProt P17612)
[11] = target: Dual specificity protein kinase CLK4 (Homo sapiens, UniProt Q9HAZ1)
[12] = target: Mitogen-activated protein kinase kinase kinase kinase 4 (Homo sapiens, UniProt O95819)
Mitogen-activated protein kinase kinase kinase kinase 4, sequence (O95819 whole entry): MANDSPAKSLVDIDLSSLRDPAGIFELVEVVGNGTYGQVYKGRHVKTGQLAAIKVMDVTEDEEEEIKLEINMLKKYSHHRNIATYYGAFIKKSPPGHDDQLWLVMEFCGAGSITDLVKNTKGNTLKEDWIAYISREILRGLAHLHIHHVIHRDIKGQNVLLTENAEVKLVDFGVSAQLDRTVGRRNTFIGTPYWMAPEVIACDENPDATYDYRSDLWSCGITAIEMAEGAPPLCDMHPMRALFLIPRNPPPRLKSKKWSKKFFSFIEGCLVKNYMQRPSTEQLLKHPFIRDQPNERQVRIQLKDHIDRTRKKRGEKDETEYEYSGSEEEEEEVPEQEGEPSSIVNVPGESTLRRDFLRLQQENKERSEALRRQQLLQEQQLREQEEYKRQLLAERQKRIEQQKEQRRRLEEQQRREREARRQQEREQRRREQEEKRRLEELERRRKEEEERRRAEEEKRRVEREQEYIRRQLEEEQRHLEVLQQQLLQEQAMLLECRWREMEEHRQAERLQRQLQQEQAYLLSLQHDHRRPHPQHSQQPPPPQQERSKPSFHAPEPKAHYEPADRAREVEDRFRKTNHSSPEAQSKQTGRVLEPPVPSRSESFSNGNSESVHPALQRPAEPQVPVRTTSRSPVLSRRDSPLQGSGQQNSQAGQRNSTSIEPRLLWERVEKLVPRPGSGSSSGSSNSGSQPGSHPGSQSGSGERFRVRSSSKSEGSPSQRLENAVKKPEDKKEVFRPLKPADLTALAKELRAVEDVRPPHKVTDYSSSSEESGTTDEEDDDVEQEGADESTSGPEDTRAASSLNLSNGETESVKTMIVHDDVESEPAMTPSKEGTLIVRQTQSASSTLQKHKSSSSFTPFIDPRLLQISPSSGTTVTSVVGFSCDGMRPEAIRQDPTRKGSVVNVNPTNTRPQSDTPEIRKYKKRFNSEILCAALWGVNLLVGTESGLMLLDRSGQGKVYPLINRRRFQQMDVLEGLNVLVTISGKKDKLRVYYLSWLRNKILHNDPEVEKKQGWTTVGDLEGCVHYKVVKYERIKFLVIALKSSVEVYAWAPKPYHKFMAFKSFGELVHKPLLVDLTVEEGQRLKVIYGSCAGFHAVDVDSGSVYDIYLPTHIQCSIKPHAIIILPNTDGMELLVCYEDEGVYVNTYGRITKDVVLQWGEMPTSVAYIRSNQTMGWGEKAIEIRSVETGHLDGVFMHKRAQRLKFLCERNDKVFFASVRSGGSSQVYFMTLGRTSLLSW

Aurora kinase B = Aurora kinase B (Homo sapiens, UniProt Q96GD4)
[13] = target: Serine/threonine-protein kinase BRSK1 (Homo sapiens, UniProt Q8TDC3);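 further: measured within a kinome-wide kinase panel, with the target listed as KIAA1811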

ALK tyrosine kinase receptor, sequence (Q9UM73 whole entry): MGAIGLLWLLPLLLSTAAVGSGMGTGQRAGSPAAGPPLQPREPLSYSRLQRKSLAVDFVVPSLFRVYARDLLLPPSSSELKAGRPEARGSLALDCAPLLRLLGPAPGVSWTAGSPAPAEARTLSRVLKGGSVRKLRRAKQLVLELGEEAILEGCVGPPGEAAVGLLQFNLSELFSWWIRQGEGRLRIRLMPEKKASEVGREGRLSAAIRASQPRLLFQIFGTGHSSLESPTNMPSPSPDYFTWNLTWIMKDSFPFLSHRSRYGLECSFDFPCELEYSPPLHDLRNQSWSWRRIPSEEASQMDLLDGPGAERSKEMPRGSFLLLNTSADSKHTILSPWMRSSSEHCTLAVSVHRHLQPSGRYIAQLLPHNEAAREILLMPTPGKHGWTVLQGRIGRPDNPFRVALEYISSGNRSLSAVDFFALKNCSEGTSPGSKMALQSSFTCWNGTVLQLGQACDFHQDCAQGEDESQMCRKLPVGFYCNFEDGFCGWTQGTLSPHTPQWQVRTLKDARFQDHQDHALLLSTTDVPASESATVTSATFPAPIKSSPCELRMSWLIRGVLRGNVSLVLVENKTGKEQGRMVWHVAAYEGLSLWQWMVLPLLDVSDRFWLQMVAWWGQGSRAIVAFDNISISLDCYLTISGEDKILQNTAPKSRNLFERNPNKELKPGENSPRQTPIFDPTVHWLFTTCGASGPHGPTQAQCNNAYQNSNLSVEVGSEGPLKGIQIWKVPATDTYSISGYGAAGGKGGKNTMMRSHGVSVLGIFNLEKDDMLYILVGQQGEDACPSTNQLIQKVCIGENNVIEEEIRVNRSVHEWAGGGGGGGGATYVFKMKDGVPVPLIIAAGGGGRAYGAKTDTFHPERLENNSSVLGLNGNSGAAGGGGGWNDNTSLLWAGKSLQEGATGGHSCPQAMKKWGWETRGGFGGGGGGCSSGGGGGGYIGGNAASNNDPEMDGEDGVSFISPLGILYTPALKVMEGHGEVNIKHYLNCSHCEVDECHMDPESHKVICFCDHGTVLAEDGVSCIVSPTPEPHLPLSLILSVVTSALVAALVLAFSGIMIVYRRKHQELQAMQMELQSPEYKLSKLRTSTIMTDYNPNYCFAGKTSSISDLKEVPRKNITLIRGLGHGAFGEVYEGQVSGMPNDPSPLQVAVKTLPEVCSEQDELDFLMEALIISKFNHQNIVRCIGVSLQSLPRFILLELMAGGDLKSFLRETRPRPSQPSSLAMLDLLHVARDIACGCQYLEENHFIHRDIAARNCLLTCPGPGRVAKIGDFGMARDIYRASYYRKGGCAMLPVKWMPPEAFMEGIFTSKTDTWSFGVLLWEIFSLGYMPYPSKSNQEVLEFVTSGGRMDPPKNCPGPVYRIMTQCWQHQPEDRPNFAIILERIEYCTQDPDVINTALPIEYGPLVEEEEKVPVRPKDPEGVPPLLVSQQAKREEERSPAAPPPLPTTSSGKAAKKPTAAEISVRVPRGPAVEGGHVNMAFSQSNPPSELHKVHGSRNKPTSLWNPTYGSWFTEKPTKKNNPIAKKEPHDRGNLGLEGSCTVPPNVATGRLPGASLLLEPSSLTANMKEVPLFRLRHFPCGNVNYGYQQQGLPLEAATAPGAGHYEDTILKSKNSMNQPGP

## CCNC(=O)c1cnc(N)c2c(-c3ccc(NC(=O)Nc4cccc(Cl)c4)cc3)csc12
[1]
  Ki: 158 nM (active)
[2]
  Ki: > 100000 nM (inactive)

## O=C(c1ccc([N+](=O)[O-])o1)N1CCN(c2ccc(C(F)(F)F)cn2)CC1
[3]
  EC50: 1590 nM (active)
[4]
  EC50: 9820 nM (active)

## COc1ccccc1C(=O)Nc1n[nH]c2ccc(-c3cn(Cc4ccccc4)nn3)cc12
[5]
  Ki: 501 nM (active)
[6]
  Ki: 3.98 nM (active)
[7]
  Ki: 20 nM (active)
[8]
  Ki: > 10000 nM (inactive)
[9]
  Ki: 5.01 nM (active)
[10]
  Ki: > 7940 nM (inactive)
[11]
  Ki: 3.98 nM (active)
[12]
  Ki: 79.4 nM (active)

## CCc1cccc2c1n(CC)c(=N)n2CC(=O)c1ccc(Br)cc1
Aurora kinase B
  Ki: 2510 nM (active)
[13]
  Ki: 2000 nM (active)
